Biological target: T1, plasma albumin (Rattus norvegicus, UniProt P02770)
T1 construct: from tissue; host or cells: plasma of SD rats (carbon tetrachloride cirrhosis model and healthy controls)
Experiment: L-tryptophan binding rate to plasma albumin (ultrafiltration, LC/MS)
Assay type: in vitro ADME
Conditions: 37° C., n=2
Experimental: As a cirrhosis model rat, 25-week-old male SD rats (n=2) were prepared by administering carbon tetrachloride twice a week for 18 consecutive weeks and used, and 10-week-old healthy SD rats (n=2) were used as a control.
The plasma was preincubated at 37° C. for 20 min, 10 μL of L-tryptophan solution (10 mM) was added per 1 mL of plasma and they were mixed well (A). Solution A (450 μL) was dispensed to an ultrafiltration tube (Millipore, molecular weight 30,000 cut) and centrifuged at 3,000 g for 5 min at 37° C. to give 50 μL of filtrate (B) and 50 μL of unfiltrated solution (C). An equivalent amount of 8% (w/v) TCA solution was added to each of A and B, mixed and the mixture was centrifuged at room temperature and 3,000 g for 5 min. A protein-free supernatant was recovered. Thereto was added a 4-fold amount of 0.125% (v/v) heptafluorobutyric acid (HFBA) solution, mixed, diluted with 0.1% HFBA so that the concentration would fall within the range defined by the standard curve. Then, the concentration of L-tryptophan in each sample was quantified by the LC/MS method. The L-tryptophan binding rate to plasma albumin was shown by [1-(Trp concentration (B)/Trp concentration (A))]×100(%). The recovery rate was calculated by [Trp concentration (B)×50 μL+Trp concentration (C)×400 μL]/[Trp concentration (A)×450 μL]×100(%).

T1 sequence (P02770 25-608): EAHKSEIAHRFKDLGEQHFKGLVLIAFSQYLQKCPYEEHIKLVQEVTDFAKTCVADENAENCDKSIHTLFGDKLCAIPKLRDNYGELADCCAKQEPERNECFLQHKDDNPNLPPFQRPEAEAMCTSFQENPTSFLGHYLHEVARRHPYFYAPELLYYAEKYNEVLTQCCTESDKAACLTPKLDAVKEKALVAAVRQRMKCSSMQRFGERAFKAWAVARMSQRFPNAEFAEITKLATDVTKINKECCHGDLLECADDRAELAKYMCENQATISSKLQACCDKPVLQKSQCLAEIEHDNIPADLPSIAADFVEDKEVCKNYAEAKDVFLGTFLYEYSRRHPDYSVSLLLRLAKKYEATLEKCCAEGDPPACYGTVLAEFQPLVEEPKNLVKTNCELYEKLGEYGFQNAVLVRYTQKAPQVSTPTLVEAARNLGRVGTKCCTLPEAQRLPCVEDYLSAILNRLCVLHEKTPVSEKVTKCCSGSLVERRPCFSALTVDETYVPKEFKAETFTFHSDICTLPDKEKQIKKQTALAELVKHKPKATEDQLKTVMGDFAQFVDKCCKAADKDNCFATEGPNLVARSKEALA

- L-tryptophan binding rate to albumin (plasma of cirrhosis model rats (carbon tetrachloride, 18 weeks)): 48%
- L-tryptophan binding rate to albumin (plasma of normal (healthy SD) rats): 83%
Structure (SMILES): N[C@@H](Cc1c[nH]c2ccccc12)C(=O)O [L-tryptophan]

From patent US20080161399A1 (Ajinomoto Co., Inc., priority 2005, published 2008)
